Results reported in ChEMBL document CHEMBL1926604, “Design and synthesis of pyridin-2-ylmethylaminopiperidin-1-ylbutyl amide CCR5 antagonists that are potent inhibitors of M-tropic (R5) HIV-1 replication” (Bioorg Med Chem Lett, 2011).
Each block holds one molecule with its values, some of them ahead of it.

Experiments:
[1] = test system: Human immunodeficiency virus 1; assay: Antiviral activity against R5 tropic Human immunodeficiency virus 1 BAL infected in human PBMC cells assessed as reduction in viral replication by p24 detection based ELISA; type: functional, organism-based
[2] = Cytotoxic activity against human PBMC assessed as reduction in cell viability; type: cell-based
[3] = Cmax in dog; type: ADME, organism-based, Canis lupus familiaris; conditions: in vivo
[4] = Half life in dog at 5 umol/kg, iv; type: ADME, organism-based, Canis lupus familiaris; conditions: in vivo
[5] = Clearance in dog at 5 umol/kg, iv; type: ADME, organism-based, Canis lupus familiaris; conditions: in vivo
[6] = Volume of distribution at steady state in dog at 5 umol/kg, iv; type: ADME, organism-based, Canis lupus familiaris; conditions: in vivo, read-out: Vdss
[7] = Oral bioavailability in dog; type: ADME, organism-based, Canis lupus familiaris; conditions: in vivo
[8] = Plasma protein binding in human plasma at 1 uM after 5 hrs by LC-MS/MS analysis; type: ADME, cell-free; conditions: read-out: PPB (converted)
[9] = AUC (0 to infinity) in dog; type: ADME, organism-based, Canis lupus familiaris; parameters: time infinity; concentration or dose not given beside the values; conditions: plasma
[10] = test system: Rattus norvegicus; assay: (§1) Volume of distribution at steady state in rat at 10 umol/kg, iv; type: ADME, organism-based; conditions: in vivo
[11] = AUC (0 to infinity) in rat; type: ADME, organism-based; parameters: time infinity; concentration or dose not given beside the values; conditions: plasma
[12] = Oral bioavailability in rat; type: ADME, organism-based; conditions: in vivo
[13] = Cmax in rat; type: ADME, organism-based; conditions: in vivo
[14] = test system: Rattus norvegicus; assay: (§2) Half life in rat at 10 umol/kg, iv; type: ADME, organism-based; conditions: in vivo
[15] = as §1; type: ADME, organism-based; conditions: in vivo, 10 umol/kg, read-out: Vdss
[16] = Clearance in rat at 10 umol/kg, iv; type: ADME, organism-based; conditions: in vivo
[17] = as §2; type: ADME, organism-based; conditions: in vivo, 10 umol/kg

SMILES: COC(=O)c1ccc(N(Cc2ccccc2)C2CCN(C(C)CCNC(=O)c3c(Cl)cncc3Cl)CC2)cc1 (stereo not given)
IC50 [1]: 177 nM | CC50 [2]: 21400 nM

Cmax [3]: 920 nM | half-life [4]: 2.8 h | IC50 [1]: 0.96 nM | clearance [5]: 21.1 mL/min/kg | Vd [6]: 5.2 L/kg | bioavailability [7]: 5% | fraction unbound at 5 h, 1 µM [8]: 0.11 | AUC(0-inf) [9]: 0.48 µM·h
SMILES: COc1ccc(N(Cc2cnccc2C)C2CCN([C@H](C)CCNC(=O)c3c(C)cc(C(=O)NC(C)C)nc3C)CC2)cc1
CC50 [2]: > 32800 nM

IC50 [1]: 3.9 nM | fraction unbound at 5 h, 1 µM [8]: 0.09
SMILES: COc1ccc(N(Cc2cccc(C#N)n2)C2CCN([C@H](C)CCNC(=O)c3c(C)cc(C#N)nc3C)CC2)cc1
CC50 [2]: > 36300 nM

SMILES: COc1ccc(N(Cc2cccc(C#N)n2)C2CCN([C@H](C)CCNC(=O)c3c(C)cc(F)nc3C)CC2)cc1
IC50 [1]: 3.6 nM | CC50 [2]: > 35800 nM | fraction unbound at 5 h, 1 µM [8]: 0.21

SMILES: COc1ccc(N(Cc2cccnc2)C2CCN([C@H](C)CCNC(=O)c3c(C)cc(F)nc3C)CC2)cc1
IC50 [1]: 29.6 nM | CC50 [2]: > 36700 nM | fraction unbound at 5 h, 1 µM [8]: 0.14

IC50 [1]: 32.3 nM | fraction unbound at 5 h, 1 µM [8]: 0.08
SMILES: COCCOc1ccc(N(Cc2cnccc2C)C2CCN([C@H](C)CCNC(=O)c3c(C)cc(C#N)nc3C)CC2)cc1
CC50 [2]: > 32600 nM

SMILES: COc1ccc(N(Cc2cccnc2)C2CCN([C@H](C)CCNC(=O)c3c(C)cc(Cl)nc3C)CC2)cc1
Cmax [3]: 1570 nM | half-life [4]: 13.2 h | IC50 [1]: 18.9 nM | Vdss [10]: 50.5 L/kg | AUC(0-inf) [11]: 4.83 µM·h | bioavailability [12]: 23% | clearance [5]: 23.3 mL/min/kg | Vd [6]: 26.7 L/kg | CC50 [2]: > 37300 nM | bioavailability [7]: 37% | Cmax [13]: 1330 nM | fraction unbound at 5 h, 1 µM [8]: 0.07 | t1/2 [14]: 8.6 h | AUC(0-inf) [9]: 2.73 µM·h

SMILES: COc1ccc(N(Cc2cccc(C#N)n2)C2CCN([C@H](C)CCNC(=O)c3c(C)cc(Cl)nc3C)CC2)cc1
Cmax [3]: 520 nM | half-life [4]: 0.8 h | IC50 [1]: 3.5 nM | clearance [5]: 42.7 mL/min/kg | Vd [6]: 3 L/kg | CC50 [2]: > 35100 nM | bioavailability [7]: 15% | fraction unbound at 5 h, 1 µM [8]: 0.16 | AUC(0-inf) [9]: 0.72 µM·h

SMILES: CC(CCNC(=O)c1c(Cl)cncc1Cl)N1CCC(N(Cc2ccccc2)c2ccc(C(=O)N(C)C)cc2)CC1 (stereo not given)
IC50 [1]: 9630 nM | CC50 [2]: > 30000 nM

IC50 [1]: 23.1 nM | fraction unbound at 5 h, 1 µM [8]: 0.19
SMILES: COCCOc1ccc(N(Cc2cnccc2C)C2CCN([C@H](C)CCNC(=O)c3c(C)cc(F)nc3C)CC2)cc1
CC50 [2]: > 32700 nM

SMILES: COc1ccc(N(Cc2cccc(C#N)c2)C2CCN(C(C)CCNC(=O)c3c(Cl)cncc3Cl)CC2)cc1 (stereo not given)
IC50 [1]: 14 nM | CC50 [2]: > 1760 nM

Cmax [3]: 11200 nM | half-life [4]: 1.5 h | IC50 [1]: 96 nM | Vd [15]: 4.2 L/kg | AUC(0-inf) [11]: 9.07 µM·h | bioavailability [12]: 16% | clearance [5]: 5 mL/min/kg | Vd [6]: 0.4 L/kg | bioavailability [7]: 35% | clearance [16]: 30 mL/min/kg | Cmax [13]: 2790 nM | fraction unbound at 5 h, 1 µM [8]: < 0.001 | half-life [17]: 4.8 h | AUC(0-inf) [9]: 14.5 µM·h
SMILES: CC(CCNC(=O)c1c(Cl)cncc1Cl)N1CCC(N(Cc2ccccc2)c2ccc(Oc3ccc(C(=O)O)cc3)cc2)CC1 (stereo not given)
CC50 [2]: 22100 nM

SMILES: CC(CCNC(=O)c1c(Cl)cncc1Cl)N1CCC(N(Cc2cccc(C#N)c2)c2ccc(Br)cc2)CC1 (stereo not given)
IC50 [1]: 89 nM | CC50 [2]: 6700 nM

Cmax [3]: 750 nM | half-life [4]: 5.4 h | IC50 [1]: 2 nM | Vd [15]: 23.7 L/kg | AUC(0-inf) [11]: 7.3 µM·h | bioavailability [12]: 57% | clearance [5]: 15 mL/min/kg | Vd [6]: 6 L/kg | bioavailability [7]: 36% | clearance [16]: 132 mL/min/kg | Cmax [13]: 530 nM | fraction unbound at 5 h, 1 µM [8]: < 0.001 | half-life [17]: 5 h | AUC(0-inf) [9]: 5.11 µM·h
SMILES: CC(CCNC(=O)c1c(Cl)cncc1Cl)N1CCC(N(Cc2cccc(C#N)c2)c2ccc(OC(F)(F)F)cc2)CC1 (stereo not given)
CC50 [2]: 6000 nM

SMILES: COc1ccc(N(Cc2cnccc2C)C2CCN([C@H](C)CCNC(=O)c3c(C)cc(C#N)nc3C)CC2)cc1
IC50 [1]: 25.4 nM | CC50 [2]: > 34800 nM | fraction unbound at 5 h, 1 µM [8]: 0.02

SMILES: COc1ccc(N(Cc2cnccc2C)C2CCN([C@H](C)CCNC(=O)c3c(C)ccnc3Cl)CC2)cc1
Cmax [3]: 150 nM | half-life [4]: 3.3 h | IC50 [1]: 22.3 nM | Vd [15]: 15.4 L/kg | AUC(0-inf) [11]: 18.3 µM·h | bioavailability [12]: 70% | clearance [5]: 36.5 mL/min/kg | Vd [6]: 10.3 L/kg | CC50 [2]: > 37700 nM | bioavailability [7]: 4% | clearance [16]: 58.7 mL/min/kg | Cmax [13]: 3110 nM | fraction unbound at 5 h, 1 µM [8]: 0.12 | half-life [17]: 3 h | AUC(0-inf) [9]: 0.2 µM·h

SMILES: Cc1ccncc1CN(c1ccc([S+](C)[O-])cc1)C1CCN([C@H](C)CCNC(=O)c2c(C)ncnc2C)CC1 (stereo not given in full)
IC50 [1]: > 32100 nM | CC50 [2]: > 32400 nM

IC50 [1]: 1 nM
SMILES: CC(CCNC(=O)c1c(Cl)cncc1Cl)N1CCC(N(Cc2cccc(C#N)c2)c2ccc(C(F)(F)F)cc2)CC1 (stereo not given)
CC50 [2]: 12300 nM

SMILES: CC(CCNC(=O)c1c(Cl)cncc1Cl)N1CCC(N(Cc2ccc(Cl)cc2)c2ccc(Br)cc2)CC1 (stereo not given)
IC50 [1]: > 1300 nM | CC50 [2]: 4300 nM

SMILES: COc1ccc(N(Cc2cnccc2C)C2CCN([C@H](C)CCNC(=O)c3c(C)cncc3C)CC2)cc1
IC50 [1]: 11500 nM | CC50 [2]: > 38800 nM

IC50 [1]: 3.3 nM | fraction unbound at 5 h, 1 µM [8]: 0.11
SMILES: Cc1ccncc1CN(c1ccc(OCC(N)=O)cc1)C1CCN([C@H](C)CCNC(=O)c2c(C)cc(C#N)nc2C)CC1
CC50 [2]: > 34300 nM

Cmax [3]: 10 nM | half-life [4]: 1.3 h | IC50 [1]: 2 nM | Vd [15]: 9.2 L/kg | AUC(0-inf) [11]: 7.18 µM·h | bioavailability [12]: 27% | clearance [5]: 157 mL/min/kg | Vd [6]: 4.9 L/kg | bioavailability [7]: < 1% | clearance [16]: 61.2 mL/min/kg | Cmax [13]: 1070 nM | fraction unbound at 5 h, 1 µM [8]: 0.15 | half-life [17]: 1.7 h | AUC(0-inf) [9]: 0.02 µM·h
SMILES: COCCOc1ccc(N(Cc2cnccc2C)C2CCN([C@H](C)CCNC(=O)c3c(C)cc(Cl)nc3C)CC2)cc1
CC50 [2]: > 32700 nM

SMILES: CC(CCNC(=O)c1c(Cl)cncc1Cl)N1CCC(N(Cc2cccc(C#N)c2)c2ccc(C#N)cc2)CC1 (stereo not given)
IC50 [1]: 376 nM | CC50 [2]: 33600 nM

SMILES: COc1ccc(N(Cc2cnccc2C)C2CCN([C@H](C)CCNC(=O)c3c(C)cc(F)nc3C)CC2)cc1
Cmax [3]: 410 nM | half-life [4]: 3 h | IC50 [1]: 2.2 nM | Vd [15]: 4.6 L/kg | AUC(0-inf) [11]: 10.9 µM·h | bioavailability [12]: 3% | clearance [5]: 32 mL/min/kg | Vd [6]: 8.3 L/kg | CC50 [2]: > 36300 nM | bioavailability [7]: 10% | clearance [16]: 16.6 mL/min/kg | Cmax [13]: 1270 nM | fraction unbound at 5 h, 1 µM [8]: 0.21 | half-life [17]: 3.3 h | AUC(0-inf) [9]: 0.65 µM·h

SMILES: CC(CCNC(=O)c1c(Cl)cncc1Cl)N1CCC(N(Cc2ccccc2)c2ccc(C#N)cc2)CC1 (stereo not given)
IC50 [1]: 380 nM | CC50 [2]: 9700 nM

SMILES: CC(CCNC(=O)c1c(Cl)cncc1Cl)N1CCC(N(Cc2ccccc2Cl)c2ccc(Br)cc2)CC1 (stereo not given)
IC50 [1]: > 1250 nM | CC50 [2]: 5700 nM

SMILES: CC(CCNC(=O)c1c(Cl)cncc1Cl)N1CCC(N(Cc2ccccc2)c2ccc(C(F)(F)F)cc2)CC1 (stereo not given)
IC50 [1]: 110 nM | CC50 [2]: 8100 nM

SMILES: COc1ccc(N(Cc2ccccc2)C2CCN(C(C)CCNC(=O)c3c(Cl)cncc3Cl)CC2)cc1 (stereo not given)
IC50 [1]: 2170 nM | CC50 [2]: 36500 nM

SMILES: COc1ccc(N(Cc2cnccc2C)C2CCN([C@H](C)CCNC(=O)c3c(C)ccnc3C)CC2)cc1
IC50 [1]: 1040 nM | CC50 [2]: > 38900 nM | fraction unbound at 5 h, 1 µM [8]: 0.05

SMILES: CC(CCNC(=O)c1c(Cl)cncc1Cl)N1CCC(N(Cc2ccccc2)c2ccc(OC(F)(F)F)cc2)CC1 (stereo not given)
IC50 [1]: 59 nM | CC50 [2]: 4000 nM

SMILES: Cc1ccncc1CN(c1ccccc1)C1CCN([C@H](C)CCNC(=O)c2c(C)cc(C#N)nc2C)CC1
fraction unbound at 5 h, 1 µM [8]: 0.06

SMILES: CC(CCNC(=O)c1c(Cl)cncc1Cl)N1CCC(N(Cc2ccccc2)c2ccc(Br)cc2)CC1 (stereo not given)
IC50 [1]: 220 nM

SMILES: CC(CCNC(=O)c1c(Cl)cncc1Cl)N1CCC(N(Cc2cccc(Cl)c2)c2ccc(Br)cc2)CC1 (stereo not given)
IC50 [1]: 400 nM | CC50 [2]: 7300 nM

SMILES: COc1cccc(CN(c2ccc(Br)cc2)C2CCN(C(C)CCNC(=O)c3c(Cl)cncc3Cl)CC2)c1 (stereo not given)
IC50 [1]: 2880 nM | CC50 [2]: 6400 nM
